Source: ChEMBL document CHEMBL2034850, “Radiosynthesis of a ¹⁸F-labeled 2,3-diarylsubstituted indole via McMurry coupling for functional characterization of cyclooxygenase-2 (COX-2) in vitro and in vivo” (Bioorg Med Chem, 2012)

Assays:
HT-29 [1] = conditions: human, ht-29, 4 h
Description: Cellular uptake in human HT-29 monolayers assessed per mg of protein at 0.4 MBq after 4 hrs by gamma counting

HT-29 [2] = assay: Cellular uptake in human HT-29 spheroids of diameter 600+/-10 um assessed per mg of protein at 0.4 MBq after 4 hrs by gamma counting; assay type: ADME, cell-based; conditions: ht-29, 4 h
HT-29 [3] = assay: Cellular uptake in human HT-29 spheroids of diameter 300+/-10 um assessed per mg of protein at 0.4 MBq after 4 hrs by gamma counting; assay type: ADME, cell-based; conditions: ht-29, 4 h

Molecule `O=[N+]([O-])c1nccn1CC(O)C[18F]` (stereo not drawn) [[18F]FLUOROMISONIDAZOLE] has a Drug uptake (HT-29 [1]) of 1.03 %ID, a Drug uptake (HT-29 [2]) of 9.86 %ID and a Drug uptake (HT-29 [3]) of 1.17 %ID.
